Structures can show the parent of a compound that is named as a salt. Where two headings read alike, the source gives them in different places.
Legend:
[1] = Solubility measurement of Compound 1 di-HCl in various solvents; format: physicochemical; conditions: organic solvent or mixture, thermodynamic from solid; for solubility at 36 h: 25 °C, 25±1° C., agitated 36 h; for solubility at 24 h: 50 °C, 50±1° C., agitated 24 h
Experimental: The solubility of Compound 1 di-HCl was measured at 25±1° C. and 50±1° C. according to the following procedures.
Compound 1 di-HCl was added to 2 mL of a solvent listed in Table 3 at 25±1° C. until the solution became cloudy. Another 10 mg of Compound 1 di-HCl was then added. The mixture was agitated at 25±1° C. for 36 h. The supernatant was filtered using a syringe filter. The saturated solution was pipetted into an HPLC vial, which was diluted with acetonitrile. The solubility of Compound 1 di-HCl was calculated for each solvent.
Compound 1 di-HCl was added to 2 mL of a solvent listed in Table 3 at 50±1° C. until the solution became cloudy. Another 20-25 mg of Compound 1 di-HCl was then added. The mixture was agitated at 50±1° C. for 24 h. The supernatant was filtered using a warmed syringe filter at 50±1° C. The saturated solution was pipetted into an HPLC vial, which was diluted with acetonitrile. The solubility of Compound 1 di-HCl was calculated for each solvent.

[2] = as above; format: physicochemical; conditions: thermodynamic from solid; for solubility: by vision; for solubility at 24 h: agitated 24 h

In the case of `N#CCC1(N2CCC(N[C@@H]3C[C@H]3c3ccccc3)CC2)CN(S(N)(=O)=O)C1` [Compound 1 di-HCl, 3-(cyanomethyl)-3-(4-{[(1R,2S)-2-phenylcyclopropyl]amino}piperidin-1-yl)azetidine-1-sulfonamide dihydrochloride], the solubility at 36 h ([1]; solvent 2-Methoxyethanol) is reported as 45900 µg/mL, the solubility at 36 h ([1]; solvent Acetone) is reported as 3490 µg/mL and the solubility at 36 h ([1]; solvent IPA) is reported as 1310 µg/mL. It also gave a solubility at 36 h ([1]; solvent MeCN) of 610 µg/mL, a solubility at 36 h ([1]; solvent Methanol) of 32300 µg/mL and a solubility at 36 h ([1]; solvent n-BuOH) of 1310 µg/mL. For the same compound, the solubility at 24 h ([1]; solvent 1,4-Dioxane) was 310 µg/mL, the solubility at 24 h ([1]; solvent 1-Propanol) was 5210 µg/mL and the solubility at 24 h ([1]; solvent Dichloromethane) was 60 µg/mL. For the same compound, the solubility at 24 h ([1]; solvent EtOAc) was 30 µg/mL, the solubility at 24 h ([1]; solvent EtOH) was 3630 µg/mL and the solubility at 24 h ([1]; solvent Ethyl formate) was 50 µg/mL. For the same compound, the solubility at 24 h ([1]; solvent MEK) was 160 µg/mL, the solubility at 24 h ([1]; solvent MIBK) was 130 µg/mL and the solubility at 24 h ([1]; solvent MeCN) was 6290 µg/mL. It also gave a solubility at 24 h ([1]; solvent THF) of 90 µg/mL, a solubility at 36 h ([2]; 25 °C, organic solvent or mixture, solvent 1,4-Dioxane, 25±1° C., agitated 36 h) of 200 µg/mL and a solubility at 36 h ([2]; 25 °C, organic solvent or mixture, solvent 1-Propanol, 25±1° C., agitated 36 h) of 4600 µg/mL. The solubility at 36 h ([2]; 25 °C, organic solvent or mixture, solvent 5% Water in ACN, 25±1° C.) was > 50000 µg/mL, the solubility ([2]; 25 °C, organic solvent or mixture, solvent 5% Water in MeOH, 25±1° C., read-out: Solubility at 25° C.) was > 50000 µg/mL and the solubility ([2]; 25 °C, organic solvent or mixture, solvent ACN/water (9:1), 25±1° C., read-out: Solubility at 25° C.) was > 50000 µg/mL. The solubility ([2]; 25 °C, organic solvent or mixture, solvent ACN:Water (4:1), 25±1° C., read-out: Solubility at 25° C.) was > 50000 µg/mL, the solubility ([2]; 25 °C, organic solvent or mixture, solvent Chloroform, 25±1° C., read-out: Solubility at 25° C.) was > 50000 µg/mL and the solubility ([2]; 25 °C, organic solvent or mixture, solvent DMF, 25±1° C., read-out: Solubility at 25° C.) was > 50000 µg/mL. For the same compound, the solubility ([2]; 25 °C, organic solvent or mixture, solvent DMSO, 25±1° C., read-out: Solubility at 25° C.) was > 50000 µg/mL, the solubility at 36 h ([2]; 25 °C, organic solvent or mixture, solvent EtOH, 25±1° C., agitated 36 h) was 3370 µg/mL and the solubility at 36 h ([2]; 25 °C, organic solvent or mixture, solvent Ethyl formate, 25±1° C., agitated 36 h) was 90 µg/mL. For the same compound, the solubility at 36 h ([2]; 25 °C, organic solvent or mixture, solvent MEK, 25±1° C., agitated 36 h) was 160 µg/mL, the solubility at 36 h ([2]; 25 °C, organic solvent or mixture, solvent MIBK, 25±1° C., agitated 36 h) was 60 µg/mL and the solubility ([2]; 25 °C, organic solvent or mixture, solvent MeOH/ACN (10 v/3 v), 25±1° C., read-out: Solubility at 25° C.) was > 50000 µg/mL. For the same compound, the solubility ([2]; 25 °C, organic solvent or mixture, solvent MeOH/Water/ACN (6.0/0.5/1.0), 25±1° C., read-out: Solubility at 25° C.) was > 50000 µg/mL, the solubility ([2]; 25 °C, organic solvent or mixture, solvent MeOH/water/ACN (6 v/0.5 v/3.5 v), 25±1° C., read-out: Solubility at 25° C.) was > 50000 µg/mL and the solubility at 36 h ([2]; 25 °C, organic solvent or mixture, solvent MeOH/water/ACN (6 v/1 v/3 v), 25±1° C.) was > 50000 µg/mL. The solubility ([2]; 25 °C, organic solvent or mixture, solvent MeOH/water/ACN (6 v/1.5 v/3 v), 25±1° C., read-out: Solubility at 25° C.) was > 50000 µg/mL, the solubility at 36 h ([2]; 25 °C, organic solvent or mixture, solvent THF, 25±1° C., agitated 36 h) was 40 µg/mL and the solubility ([2]; 25 °C, solvent Water, 25±1° C., read-out: Solubility at 25° C.) was > 50000 µg/mL. The solubility at 24 h ([2]; 50 °C, organic solvent or mixture, solvent 2-Methoxyethanol, 50±1° C.) was 48300 µg/mL, the solubility at 24 h ([2]; 50 °C, organic solvent or mixture, solvent 5% Water in ACN, 50±1° C.) was 45400 µg/mL and the solubility ([2]; 50 °C, organic solvent or mixture, solvent 5% Water in MeOH, 50±1° C., read-out: Solubility at 50° C.) was > 50000 µg/mL. For the same compound, the solubility ([2]; 50 °C, organic solvent or mixture, solvent ACN/water (9:1), 50±1° C., read-out: Solubility at 50° C.) was > 50000 µg/mL, the solubility ([2]; 50 °C, organic solvent or mixture, solvent ACN:Water (4:1), 50±1° C., read-out: Solubility at 50° C.) was > 50000 µg/mL and the solubility at 24 h ([2]; 50 °C, organic solvent or mixture, solvent Acetone, 50±1° C.) was 850 µg/mL. For the same compound, the solubility ([2]; 50 °C, organic solvent or mixture, solvent Chloroform, 50±1° C., read-out: Solubility at 50° C.) was > 50000 µg/mL, the solubility ([2]; 50 °C, organic solvent or mixture, solvent DMF, 50±1° C., read-out: Solubility at 50° C.) was > 50000 µg/mL and the solubility ([2]; 50 °C, organic solvent or mixture, solvent DMSO, 50±1° C., read-out: Solubility at 50° C.) was > 50000 µg/mL. For the same compound, the solubility at 24 h ([2]; 50 °C, organic solvent or mixture, solvent IPA, 50±1° C.) was 1910 µg/mL, the solubility ([2]; 50 °C, organic solvent or mixture, solvent MeOH/ACN (10 v/3 v), 50±1° C., read-out: Solubility at 50° C.) was > 50000 µg/mL and the solubility ([2]; 50 °C, organic solvent or mixture, solvent MeOH/Water/ACN (6.0/0.5/1.0), 50±1° C., read-out: Solubility at 50° C.) was > 50000 µg/mL. For the same compound, the solubility ([2]; 50 °C, organic solvent or mixture, solvent MeOH/water/ACN (6 v/0.5 v/3.5 v), 50±1° C., read-out: Solubility at 50° C.) was > 50000 µg/mL, the solubility ([2]; 50 °C, organic solvent or mixture, solvent MeOH/water/ACN (6 v/1 v/3 v), 50±1° C., read-out: Solubility at 50° C.) was > 50000 µg/mL and the solubility ([2]; 50 °C, organic solvent or mixture, solvent MeOH/water/ACN (6 v/1.5 v/3 v), 50±1° C., read-out: Solubility at 50° C.) was > 50000 µg/mL. For the same compound, the solubility at 24 h ([2]; 50 °C, organic solvent or mixture, solvent Methanol, 50±1° C.) was > 50000 µg/mL, the solubility at 24 h ([2]; 50 °C, organic solvent or mixture, solvent n-BuOH, 50±1° C.) was 2340 µg/mL and the solubility ([2]; 50 °C, solvent Water, 50±1° C., read-out: Solubility at 50° C.) was > 50000 µg/mL. For the same compound, the solubility ([2]; MeOH/water/ACN (5 v/2 v/3 v), 25 °C, organic solvent or mixture, solvent Me0H/water/ACN (5 v/2 v/3 v), 25±1° C., read-out: Solubility at 25° C.) was > 50000 µg/mL and the solubility ([2]; MeOH/water/ACN (5 v/2 v/3 v), 50 °C, organic solvent or mixture, solvent Me0H/water/ACN (5 v/2 v/3 v), 50±1° C., read-out: Solubility at 50° C.) was > 50000 µg/mL.
